Target: KRas (Homo sapiens, UniProt P01116, G12C)
Assay: KRas degradation in SW1573 cells by Western blot, normalized to GAPDH (data of Table 14)
Type: cell-based
Conditions: SW1573 cells
Outline: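 SW1573 cells, homozygous for the KRas G12C mutation and maintained in DMEM with 10% FBS and 1% penicillin-streptomycin, were seeded in 12-well plates, allowed to attach overnight at 37° C. under 5% CO2, then serum-starved for 24 hours before compound exposure. KRas levels were measured by Western blot, normalized to GAPDH, and compared with DMSO controls to give percent degradation, DC50 and Dmax.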

SMILES	Percent Degradation at Indicated Concentration (μM) (0.1 μM)	Percent Degradation at Indicated Concentration (μM) (0.3 μM)	Percent Degradation at Indicated Concentration (μM) (1 μM)	Percent Degradation at Indicated Concentration (μM) (3 μM)	Percent Degradation at Indicated Concentration (μM) (0.03 μM)	Dmax [%]
C=CC(=O)N1CCN(c2nc(OC3CCN(CCOCCN4CCN(CC(=O)N[C@H](C(=O)N5C[C@H](O)C[C@H]5C(=O)N[C@@H](C)c5ccc(-c6scnc6C)cc5)C(C)(C)C)CC4)CC3)nc3c(F)c(-c4cc(O)cc5ccccc45)c(Cl)cc23)CC1 [compound 475, (2S,4R)-1-((2S)-2-(2-(4-(2-(2-(4-((4-(4-acryloylpiperazin-1-yl)-6-chloro-8-fluoro-7-(3-hydroxynaphthalen-1-yl)quinazolin-2-yl)oxy)piperidin-1-yl)ethoxy)ethyl)piperazin-1-yl)acetamido)-3,3-dimethylbutanoyl)-4-hydroxy-N-((S)-1-(4-(4-methylthiazol-5-yl)phenyl)ethyl)pyrrolidine-2-carboxamide]	C (Percent Degradation: C ≤ 35)	C (Percent Degradation: C ≤ 35)	C (Percent Degradation: C ≤ 35)			
Cc1ncsc1-c1ccc([C@H](C)NC(=O)[C@@H]2C[C@@H](O)CN2C(=O)[C@@H](NC(=O)COCCOC2CCN(C[C@@H](C)Oc3nc(N4CCN(C(=O)C(O)O)CC4)c4cc(Cl)c(-c5cc(O)cc6ccccc56)c(F)c4n3)CC2)C(C)(C)C)cc1 [compound 244, (2S,4R)-1-((2S)-2-(2-(2-((1-((2R)-2-((6-chloro-4-(4-(2,2-dihydroxyacetyl)piperazin-1-yl)-8-fluoro-7-(3-hydroxynaphthalen-1-yl)quinazolin-2-yl)oxy)propyl)piperidin-4-yl)oxy)ethoxy)acetamido)-3,3-dimethylbutanoyl)-4-hydroxy-N-((S)-1-(4-(4-methylthiazol-5-yl)phenyl)ethyl)pyrrolidine-2-carboxamide]		C (Percent Degradation: C ≤ 35)	C (Percent Degradation: C ≤ 35)	C (Percent Degradation: C ≤ 35)		
C=CC(=O)N1CCN(c2nc(O[C@H](C)CN3CCC(OCCOCCOCCOCCOc4cc([C@@H](C(=O)N5C[C@H](O)C[C@H]5C(=O)N[C@@H](C)c5ccc(-c6scnc6C)cc5)C(C)C)on4)CC3)nc3c(F)c(-c4cc(O)cc5ccccc45)c(Cl)cc23)CC1 [compound 531, (2S,4R)-1-((2S)-2-(3-(2-(2-(2-(2-((1-((2R)-2-((4-(4-acryloylpiperazin-1-yl)-6-chloro-8-fluoro-7-(3-hydroxynaphthalen-1-yl)quinazolin-2-yl)oxy)propyl)piperidin-4-yl)oxy)ethoxy)ethoxy)ethoxy)ethoxy)isoxazol-5-yl)-3-methylbutanoyl)-4-hydroxy-N-((S)-1-(4-(4-methylthiazol-5-yl)phenyl)ethyl)pyrrolidine-2-carboxamide]	C (Percent Degradation: C ≤ 35)	C (Percent Degradation: C ≤ 35)			C (Percent Degradation: C ≤ 35)	
C=CC(=O)N1CCN(c2nc(O[C@H](C)CN3CCC(OCCOCCOc4cc([C@H](C(=O)N5C[C@H](O)C[C@H]5C(=O)N[C@@H](C)c5ccc(-c6scnc6C)cc5)C(C)C)on4)CC3)nc3c(F)c(-c4cc(O)cc5ccccc45)c(Cl)cc23)CC1 [compound 527, (2S,4R)-1-((2R)-2-(3-(2-(2-((1-((2R)-2-((4-(4-acryloylpiperazin-1-yl)-6-chloro-8-fluoro-7-(3-hydroxynaphthalen-1-yl)quinazolin-2-yl)oxy)propyl)piperidin-4-yl)oxy)ethoxy)ethoxy)isoxazol-5-yl)-3-methylbutanoyl)-4-hydroxy-N-((S)-1-(4-(4-methylthiazol-5-yl)phenyl)ethyl)pyrrolidine-2-carboxamide]	C (Percent Degradation: C ≤ 35)	C (Percent Degradation: C ≤ 35)			C (Percent Degradation: C ≤ 35)	
C=CC(=O)N1CCN(c2nc(O[C@H](C)CN3CCC(OCCOCCOCCOc4ccc5c(c4)C(=O)N(C4CCC(=O)NC4=O)C5=O)CC3)nc3c(F)c(-c4cc(O)cc5ccccc45)c(Cl)cc23)CC1 (stereo partly drawn) [compound 428, 5-(2-(2-(2-((1-((2R)-2-((4-(4-acryloylpiperazin-1-yl)-6-chloro-8-fluoro-7-(3-hydroxynaphthalen-1-yl)quinazolin-2-yl)oxy)propyl)piperidin-4-yl)oxy)ethoxy)ethoxy)ethoxy)-2-(2,6-dioxopiperidin-3-yl)isoindoline-1,3-dione]	C (Percent Degradation: C ≤ 35)	C (Percent Degradation: C ≤ 35)	C (Percent Degradation: C ≤ 35)			
C=CC(=O)N1CCN(c2nc(O[C@H](C)CN3CCC(OCCOCCOCCOCCOc4ccc5c(c4)CN(C4CCC(=O)NC4=O)C5=O)CC3)nc3c2CCN(c2cc(O)cc4ccccc24)C3)CC1 (stereo partly drawn) [compound 424, 3-(5-(2-(2-(2-(2-((1-((R)-2-((4-(4-acryloylpiperazin-1-yl)-7-(3-hydroxynaphthalen-1-yl)-5,6,7,8-tetrahydropyrido[3,4-d]pyrimidin-2-yl)oxy)propyl)piperidin-4-yl)oxy)ethoxy)ethoxy)ethoxy)ethoxy)-1-oxoisoindolin-2-yl)piperidine-2,6-dione]	C (Percent Degradation: C ≤ 35)	C (Percent Degradation: C ≤ 35)	C (Percent Degradation: C ≤ 35)			
C=CC(=O)N1CCN(c2nc(OC[C@@H]3C[C@@H](OCCOCCOCCOc4ccc5c(c4)C(=O)N(C4CCC(=O)NC4=O)C5=O)CN3C)nc3c2CCN(c2cccc4ccccc24)C3)C[C@@H]1CC#N (stereo partly drawn) [compound 504, 2-((2S)-1-acryloyl-4-(2-(((2S,4R)-4-(2-(2-(2-((2-(2,6-dioxopiperidin-3-yl)-1,3-dioxoisoindolin-5-yl)oxy)ethoxy)ethoxy)ethoxy)-1-methylpyrrolidin-2-yl)methoxy)-7-(naphthalen-1-yl)-5,6,7,8-tetrahydropyrido[3,4-d]pyrimidin-4-yl)piperazin-2-yl)acetonitrile]	B (35 < B < 70)	A (A > 70)	C (Percent Degradation: C ≤ 35)			≥ 70
C=CC(=O)N1CCN(c2nc(O[C@H](C)CN3CCC(OCCOCCOCCOCCOCCOc4ccc5c(c4)CN(C4CCC(=O)NC4=O)C5=O)CC3)nc3c2CCN(c2cc(O)cc4ccccc24)C3)CC1 (stereo partly drawn) [compound 425, 3-(5-((14-((1-((R)-2-((4-(4-acryloylpiperazin-1-yl)-7-(3-hydroxynaphthalen-1-yl)-5,6,7,8-tetrahydropyrido[3,4-d]pyrimidin-2-yl)oxy)propyl)piperidin-4-yl)oxy)-3,6,9,12-tetraoxatetradecyl)oxy)-1-oxoisoindolin-2-yl)piperidine-2,6-dione]	C (Percent Degradation: C ≤ 35)	C (Percent Degradation: C ≤ 35)	C (Percent Degradation: C ≤ 35)			
CN1C[C@H](OCCOCCOc2ccc3c(c2)C(=O)N(C2CCC(=O)NC2=O)C3=O)C[C@H]1COc1nc2c(c(N3CCN(C(N)=O)[C@@H](CC#N)C3)n1)CCN(c1cccc3ccccc13)C2 (stereo partly drawn) [compound 539, (2S)-2-(cyanomethyl)-4-(2-(((2S,4R)-4-(2-(2-((2-(2,6-dioxopiperidin-3-yl)-1,3-dioxoisoindolin-5-yl)oxy)ethoxy)ethoxy)-1-methylpyrrolidin-2-yl)methoxy)-7-(naphthalen-1-yl)-5,6,7,8-tetrahydropyrido[3,4-d]pyrimidin-4-yl)piperazine-1-carboxamide]	C (Percent Degradation: C ≤ 35)	C (Percent Degradation: C ≤ 35)	C (Percent Degradation: C ≤ 35)	C (Percent Degradation: C ≤ 35)	C (Percent Degradation: C ≤ 35)	
C=CC(=O)N1CCN(c2nc(O[C@H](C)CN3CCC(OCCOc4ccc5c(c4)C(=O)N(C4CCC(=O)NC4=O)C5=O)CC3)nc3c(F)c(-c4cc(O)cc5ccccc45)c(Cl)cc23)CC1 (stereo partly drawn) [compound 426, 5-(2-((1-((2R)-2-((4-(4-acryloylpiperazin-1-yl)-6-chloro-8-fluoro-7-(3-hydroxynaphthalen-1-yl)quinazolin-2-yl)oxy)propyl)piperidin-4-yl)oxy)ethoxy)-2-(2,6-dioxopiperidin-3-yl)isoindoline-1,3-dione]	C (Percent Degradation: C ≤ 35)	C (Percent Degradation: C ≤ 35)	C (Percent Degradation: C ≤ 35)			

— patent US12552783B2, “Modulators of proteolysis and associated methods of use” (Arvinas Operations, Inc., priority 2018, dated 2026)
